Experimental data: patent publication US9464076B2, “Benzothiophene derivative” (Daiichi Sankyo Company, Limited, priority 2013, dated 2016)
Counter-ions that a name gives are not always drawn.

Tests used:
Male C57BL/6 Cr mice = assay: Test on suppression of phencyclidine-induced hyperlocomotion in mice; format: in vivo, mouse; conditions: locomotor activity, test compound 10 mg/kg oral, phencyclidine 5 mg/kg s.c. approx. 1 hour later, measured for 1 hour; for inhibition in vivo at 10 mg/kg: Mus musculus, po, 1 h
Protocol: Male C57BL/6 Cr mice (Japan SLC, Inc.) (8 weeks old) were used in the experiment. A test compound was suspended at 1 mg/mL in a 0.5% hydroxypropylcellulose solution to prepare a suspension for administration. The suspension of the test compound or a solvent (0.5% hydroxypropylcellulose solution) was orally administered at a dose of 10 mL/kg to each mouse. After the administration, the mouse was immediately placed in a locomotor activity measurement apparatus (Muromachi Kikai Co., Ltd., locomotor activity measurement system SUPERMEX). Approximately 1 hour later, phencyclidine (5 mg/10 mL/kg) or a solvent (10 mL/kg saline) was subcutaneously administered to the mouse. The locomotor activity was measured from immediately after the subcutaneous administration to 1 hour later.
Percent inhibition exceeding 100 means that when the activity of the phencyclidine administration control group was defined as 100, the activity of the group given a test compound was lower than that of the solvent administration control group.

PDE10A = PDE10A (Homo sapiens (Human), UniProt Q9Y233); assay: Measurement of PDE10A inhibitory activity-2 (PDE10A fraction prepared from MOLT-4 cells); format: biochemical; conditions: PDE10A fraction from MOLT-4 cells (peak around 250 mM NaCl)
Protocol: A human acute lymphoblastic lymphoma T cell line MOLT-4 (which can be purchased under ATCC No. CRL-1582 from ATCC) was cultured in an RPMI1640 medium containing 10% fetal bovine serum to obtain 5×10^8 MOLT-4 cells. The cells were recovered by centrifugation and suspended in 10 ml of buffer solution A (25 mM Tris-HCl, 5 mM 2-mercaptoethanol, 2 mM benzamidine, 2 mM EDTA, and 0.1 mM 4-(2-aminoethyl)benzenesulfonyl hydrochloride, pH 7.5). The cells were homogenized using a Polytron homogenizer and centrifuged (4° C., 25,000 g, 10 minutes). Then, the supernatant was further ultracentrifuged (4° C., 100,000 g, 60 minutes). The obtained supernatant was filtered through a 0.2 μm filter to obtain a soluble fraction.
HiTrap Q HP column (5 ml×2, GE Healthcare Japan Corp.) equilibrated with buffer solution A was charged with the obtained soluble fraction. Phosphodiesterase was eluted with 300 ml of buffer solution A containing a linear gradient solution of 0 to 0.8 M NaCl to recover sixty 5-ml fractions. Each fraction was tested for cAMP-metabolizing phosphodiesterase activity.
On the other hand, total RNA was prepared from Jurkat cells, one type of human T cell, and similarly subjected to RT-PCR. […] Eur J Biochem. 1999, 266 (3), 1118-2 has reported that PDE10A from the rat striatum and testis is eluted as an active peak centered around 250 mM NaCl.
For these reasons, this fraction was used as a solution for the evaluation of PDE10A inhibitory activity. The obtained solution was used to calculate the inhibitory activity (IC50) of a test compound in the same way as in the aforementioned test.

PDE10A, sequence (Q9Y233 whole entry): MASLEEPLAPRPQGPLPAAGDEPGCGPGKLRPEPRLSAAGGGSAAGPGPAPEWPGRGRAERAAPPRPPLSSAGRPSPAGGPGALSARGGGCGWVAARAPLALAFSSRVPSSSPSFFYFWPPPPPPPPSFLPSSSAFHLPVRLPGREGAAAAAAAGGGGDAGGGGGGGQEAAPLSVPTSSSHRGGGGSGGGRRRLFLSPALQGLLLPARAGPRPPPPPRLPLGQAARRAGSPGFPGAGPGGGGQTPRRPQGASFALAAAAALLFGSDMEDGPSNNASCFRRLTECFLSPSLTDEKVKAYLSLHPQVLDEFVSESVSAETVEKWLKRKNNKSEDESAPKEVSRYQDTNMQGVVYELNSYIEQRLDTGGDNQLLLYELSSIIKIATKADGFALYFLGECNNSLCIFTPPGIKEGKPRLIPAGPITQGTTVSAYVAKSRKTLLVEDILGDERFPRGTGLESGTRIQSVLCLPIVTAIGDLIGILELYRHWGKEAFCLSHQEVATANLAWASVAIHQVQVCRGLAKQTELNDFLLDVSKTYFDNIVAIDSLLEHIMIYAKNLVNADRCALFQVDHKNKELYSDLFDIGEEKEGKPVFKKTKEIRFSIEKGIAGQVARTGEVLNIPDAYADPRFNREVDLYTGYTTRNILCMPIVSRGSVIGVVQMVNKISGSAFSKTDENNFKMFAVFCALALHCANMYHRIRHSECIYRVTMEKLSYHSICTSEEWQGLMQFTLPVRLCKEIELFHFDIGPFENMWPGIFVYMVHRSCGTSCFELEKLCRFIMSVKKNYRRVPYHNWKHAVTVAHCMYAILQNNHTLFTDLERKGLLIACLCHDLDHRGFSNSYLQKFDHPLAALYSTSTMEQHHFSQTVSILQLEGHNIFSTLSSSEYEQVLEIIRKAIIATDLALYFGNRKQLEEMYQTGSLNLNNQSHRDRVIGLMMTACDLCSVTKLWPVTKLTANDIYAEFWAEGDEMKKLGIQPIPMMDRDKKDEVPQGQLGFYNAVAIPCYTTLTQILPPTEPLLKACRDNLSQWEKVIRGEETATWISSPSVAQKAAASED

SMILES: COCc1ccc(C(C)=O)c2sc(C(=O)Nc3ccc4c(COC(=O)[C@@H](N)C(C)C)cccc4n3)c(C)c12 [Example 84, (S)-(2-(7-Acetyl-4-(methoxymethyl)-3-methylbenzo[b]thiophene-2-carboxamido)quinolin-5-yl)methyl-2-amino-3-methylbutanoate]
- inhibition in vivo at 10 mg/kg (Male C57BL/6 Cr mice): 92%
- IC50 (PDE10A): 7.1 nM

SMILES: COCc1ccc(C(C)=O)c2sc(C(=O)Nc3ccc4c(C(=O)N(C)C)cccc4n3)c(C)c12 [Example 97, 2-(7-Acetyl-4-(methoxymethyl)-3-methylbenzo[b]thiophene-2-carboxamido)-N,N-dimethylquinoline-5-carboxamide]
- inhibition in vivo at 10 mg/kg (Male C57BL/6 Cr mice): 50%
- IC50 (PDE10A): 0.26 nM

SMILES: COCc1ccc(C(C)=O)c2sc(C(=O)Nc3cc(N4CCN(C)CC4)c4ccccc4n3)c(C)c12 [Example 57, 7-Acetyl-4-(methoxymethyl)-3-methyl-N-(4-(4-methylpiperazin-1-yl)quinolin-2-yl)benzo[b]thiophene-2-carboxamide]
- inhibition in vivo at 10 mg/kg (Male C57BL/6 Cr mice): 86%
- IC50 (PDE10A): 1.6 nM

SMILES: COCc1ccc(C(C)=O)c2sc(C(=O)Nc3ccc4c(C(C)O)cccc4n3)c(C)c12 (stereo not drawn) [Example 76, 7-Acetyl-N-(5-(1-hydroxyethyl)quinolin-2-yl)-4-(methoxymethyl)-3-methylbenzo[b]thiophene-2-carboxamide]
- inhibition in vivo at 10 mg/kg (Male C57BL/6 Cr mice): 102%
- IC50 (PDE10A): 0.53 nM

SMILES: COCc1ccc(C(C)=O)c2sc(C(=O)Nc3ccc4c(COC(=O)[C@H](C)N)cccc4n3)c(C)c12 [Example 86, (S)-(2-(7-Acetyl-4-(methoxymethyl)-3-methylbenzo[b]thiophene-2-carboxamido)quinolin-5-yl)methyl-2-aminopropanoate]
- inhibition in vivo at 10 mg/kg (Male C57BL/6 Cr mice): 88%
- IC50 (PDE10A): 1.1 nM

SMILES: COCc1ccc(C(=O)C(C)C)c2sc(C(=O)Nc3cc(CN4CC[C@@H](O)C4)c4ccccc4n3)c(C)c12 [Example 59, (R)—N-(4-((3-Hydroxypyrrolidin-1-yl)methyl)quinolin-2-yl)-7-isobutyryl-4-(methoxymethyl)-3-methylbenzo[b]thiophene-2-carboxamide dihydrochloride]
- inhibition in vivo at 10 mg/kg (Male C57BL/6 Cr mice): 67%
- IC50 (PDE10A): 0.31 nM

SMILES: COCc1ccc(C(C)=O)c2sc(C(=O)Nc3ccc4c(CO)cccc4n3)c(C)c12.Cl [Example 77, 7-Acetyl-N-(5-(hydroxymethyl)quinolin-2-yl)-4-(methoxymethyl)-3-methylbenzo[b]thiophene-2-carboxamide hydrochloride]
- % inhibition (Male C57BL/6 Cr mice): 96%

SMILES: COCc1ccc(C(C)=O)c2sc(C(=O)Nc3ccc4c(COCCO)cccc4n3)c(C)c12 [Example 72, 7-Acetyl-N-(5-((2-hydroxyethoxy)methyl)quinolin-2-yl)-4-(methoxymethyl)-3-methylbenzo[b]thiophene-2-carboxamide hydrochloride]
- inhibition in vivo at 10 mg/kg (Male C57BL/6 Cr mice): 83%
- IC50 (PDE10A): 0.54 nM

SMILES: COCc1ccc(C(C)=O)c2sc(C(=O)Nc3cc(CN4CCOCC4)c4ccccc4n3)c(C)c12 [Example 44, 7-Acetyl-4-(methoxymethyl)-3-methyl-N-(4-(morpholinomethyl)quinolin-2-yl)benzo[b]thiophene-2-carboxamide]
- inhibition in vivo at 10 mg/kg (Male C57BL/6 Cr mice): 104%
- IC50 (PDE10A): 2.1 nM

SMILES: COCc1ccc(C(C)=O)c2sc(C(=O)Nc3cc(CN4CCC(O)CC4)c4ccccc4n3)c(C)c12 [Example 36, 7-Acetyl-N-(4-((4-hydroxypiperidin-1-yl)methyl)quinolin-2-yl)-4-(methoxymethyl)-3-methylbenzo[b]thiophene-2-carboxamide]
- inhibition in vivo at 10 mg/kg (Male C57BL/6 Cr mice): 69%
- IC50 (PDE10A): 0.35 nM

SMILES: COCCOCc1cccc2nc(NC(=O)c3sc4c(C(C)=O)ccc(COC)c4c3C)ccc12 [Example 71, 7-Acetyl-N-(5-((2-methoxyethoxy)methyl)quinolin-2-yl)-4-(methoxymethyl)-3-methylbenzo[b]thiophene-2-carboxamide hydrochloride]
- inhibition in vivo at 10 mg/kg (Male C57BL/6 Cr mice): 89%
- IC50 (PDE10A): 0.75 nM

SMILES: COCc1ccc(C(C)=O)c2sc(C(=O)Nc3ccc4c(CN5CC(OC)C5)cccc4n3)c(C)c12 [Example 66, 7-Acetyl-N-(5-((3-methoxyazetidin-1-yl)methyl)quinolin-2-yl)-4-(methoxymethyl)-3-methylbenzo[b]thiophene-2-carboxamide]
- inhibition in vivo at 10 mg/kg (Male C57BL/6 Cr mice): 91%
- IC50 (PDE10A): 1.2 nM

SMILES: COCc1ccc(C(C)=O)c2sc(C(=O)Nc3ccc4c(CN5CC[C@H](O)C5)cccc4n3)c(C)c12 [Example 63, (S)-7-Acetyl-N-(5-((3-hydroxypyrrolidin-1-yl)methyl)quinolin-2-yl)-4-(methoxymethyl)-3-methylbenzo[b]thiophene-2-carboxamide dihydrochloride]
- inhibition in vivo at 10 mg/kg (Male C57BL/6 Cr mice): 84%
- IC50 (PDE10A): 1.1 nM

SMILES: COCc1ccc(C(C)=O)c2sc(C(=O)Nc3cc(CN4CC[C@@H](F)C4)c4ccccc4n3)c(C)c12 [Example 45, (R)-7-Acetyl-N-(4-((3-fluoropyrrolidin-1-yl)methyl)quinolin-2-yl)-4-(methoxymethyl)-3-methylbenzo[b]thiophene-2-carboxamide]
- inhibition in vivo at 10 mg/kg (Male C57BL/6 Cr mice): 97%
- IC50 (PDE10A): 0.5 nM

SMILES: COCc1ccc(C(C)=O)c2sc(C(=O)Nc3ccc4c(C(=O)N5CC(O)C5)cccc4n3)c(C)c12 [Example 101, 7-Acetyl-N-(5-((3-hydroxyazetidin-1-yl)carbonyl)quinolin-2-yl)-4-(methoxymethyl)-3-methylbenzo[b]thiophene-2-carboxamide]
- inhibition in vivo at 10 mg/kg (Male C57BL/6 Cr mice): 35%
- IC50 (PDE10A): 0.11 nM

SMILES: COCc1ccc(C(C)=O)c2sc(C(=O)Nc3ccc4ccccc4n3)c(C)c12 [Example 49, 7-Acetyl-4-(methoxymethyl)-3-methyl-N-(quinolin-2-yl)benzo[b]thiophene-2-carboxamide]
- inhibition in vivo at 10 mg/kg (Male C57BL/6 Cr mice): 104%

SMILES: [2H]C([2H])([2H])OCc1ccc(C(C)=O)c2sc(C(=O)Nc3ccc4c(COC)cccc4n3)c(C)c12 [Example 118, 7-Acetyl-4-((^2H3)methoxymethyl)-N-(5-(methoxymethyl)quinolin-2-yl)-3-methylbenzo[b]thiophene-2-carboxamide]
- inhibition in vivo at 10 mg/kg (Male C57BL/6 Cr mice): 77%
- IC50 (PDE10A): 0.76 nM

SMILES: COCc1ccc(C(C)=O)c2sc(C(=O)Nc3ccc4c(C(=O)N5CCN(C)CC5)cccc4n3)c(C)c12 [Example 96, 7-Acetyl-4-(methoxymethyl)-3-methyl-N-(5-((4-methylpiperazin-1-yl)carbonyl)quinolin-2-yl)benzo[b]thiophene-2-carboxamide]
- inhibition in vivo at 10 mg/kg (Male C57BL/6 Cr mice): 65%

SMILES: [2H]C([2H])([2H])OCc1ccc(C(C)=O)c2sc(C(=O)Nc3ccc4c(CO)cccc4n3)c(C)c12 [Example 120, 7-Acetyl-N-(5-(hydroxymethyl)quinolin-2-yl)-4-((^2H3)methoxymethyl)-3-methylbenzo[b]thiophene-2-carboxamide]
- inhibition in vivo at 10 mg/kg (Male C57BL/6 Cr mice): 52%

SMILES: COCc1ccc(C(C)=O)c2sc(C(=O)Nc3ccc4c(CN5CC[C@@H](F)C5)cccc4n3)c(C)c12 [Example 60, (R)-7-Acetyl-N-(5-((3-fluoropyrrolidin-1-yl)methyl)quinolin-2-yl)-4-(methoxymethyl)-3-methylbenzo[b]thiophene-2-carboxamide hydrochloride]
- inhibition in vivo at 10 mg/kg (Male C57BL/6 Cr mice): 107%

SMILES: COCc1ccc(C(C)=O)c2sc(C(=O)Nc3cc(N(C)C)c4ccccc4n3)c(C)c12 [Example 55, 7-Acetyl-N-(4-(dimethylamino)quinolin-2-yl)-4-(methoxymethyl)-3-methylbenzo[b]thiophene-2-carboxamide]
- inhibition in vivo at 10 mg/kg (Male C57BL/6 Cr mice): 127%
